Results reported in patent US20200207782A1, “CHEMICALLY ACTIVATED WATER-SOLUBLE PRODRUG” (SUMITOMO DAINIPPON PHARMA CO., LTD, priority 2017, published 2020).
Structures can show the parent of a compound that is named as a salt.

How the values were obtained:
[1] = Solution stability test (residual ratio and generation of active form in buffers of pH 2.0 to 9.0); type: physicochemical; parameters: Rate of generation of active form after 24 hours in buffer with pH of 7.4: tested at 25 µM; details: for Residual ratio: 25 umol/L
Description: The test compounds were incubated at 25° C. at a concentration of 25 umol/L in a buffer prepared to have a pH of 2.0, 3.0, 5.0, 7.4, and 9.0. The compounds were measured by HPLC after 0, 3, 6, 9, 12, and 24 hours.
The buffers used at each pH are the following. • pH 2.0: 50 mmol/L glycine buffer • pH 3.0: 50 mmol/L citrate buffer • pH 5.0: 50 mmol/L citrate buffer • pH 7.4: 50 mmol/L phosphate buffer • pH 9.0: 50 mmol/L glycine buffer
The measurement conditions for HPLC are the following.
The yield of the Example and Reference Example compounds and active forms is calculated with each of the peak area of the Example and Reference Example compounds at 0 minutes and the peak area upon dissolution of the corresponding active form at 100 umol/L as 100%. The yield is denoted in terms of %

[2] = Evaluation of conversion rate to active form in human plasma; type: in vitro ADME; details: for Measurement value % of test compound (ratio of decrease): 37° C., 10 umol/L
Description: (§1) The ratio of decrease of a test compound and the conversion ratio to a corresponding active form (2-acetylthieno[3,2-f][1]benzofuran-4,8-dione) in human plasma and CD1 mouse plasma were measured for Example 1.
(§2) The test compounds were incubated at 37° C. at a concentration of 10 umol/L in human plasma (cat. no. 12250210, Cosmo Bio) and CD1 mouse plasma (cat. no. AP3054, KAC) and retrieved for a given time (0, 5, 10, 30, 60, and 120 minutes) and deproteinized, then analyzed by LC-MS. Acetonitrile comprising each of 10% quantity of 1 mol/L hydrochloric acid, 1% quantity of 46% citric acid, and phenytoin as an internal standard was used for deproteinization.
(§3) LC-MS measurement conditions were the following.
(§4) The yield of the Examples compounds and active form 2-acetylthieno[3,2-f][1]benzofuran-4,8-dione is calculated with each of the peak area of the Example compounds at 0 minutes and the peak area upon dissolution of 2-acetylthieno[3,2-f][1]benzofuran-4,8-dione at 100 umol/L as 100%. The yield is denoted in terms of %.
(§5) In the same manner as Example 1, the conversion ratio to an active form was measured for each of the various test compounds in human plasma and CD1 mouse plasma, with incubation time as 120 minutes. It was confirmed that the series of compounds of the invention was converted to an active form with a small interspecies difference in human plasma and CD1 mouse plasma.
(§6) The yield of the active forms is calculated with the each peak area upon dissolution of the generated active form at 100 umol/L as 100%. The yield is denoted in terms of %.

[3] = Evaluation of conversion rate to active form in CD1 mouse plasma; type: in vitro ADME; details: CD1 mouse plasma; for Test compound remaining (% of 0 min peak area): 37° C., 10 umol/L
Description: as §1, §2, §3, §4, §5, §6

[4] = Pharmacokinetics test, plasma concentration after intravenous administration; type: in vivo, CD1 (ICR) mice; details: mice
Description: The concentration of the active form (2-acetylthieno[3,2-f][1]benzofuran-4,8-dione) in plasma was measured for the water-soluble prodrug described in Example 1. The animal species, dosing method, preparation method of a standard solution, and the plasma concentration measurement method are the following.
Animals: 7-week old male CD1 (ICR) mice were used as the experimental animals.
Dosing method: the test sample was weighed and then dissolved in a 50 mmol/L glycine buffered saline (pH 2.0) as the administered solution. The body weight of mice was measured, and the prepared solution was intravenously administered.
Blood collection method: heparin was added to a blood collection tube, and blood was collected from mice. 1% quantity of 46% citric acid was added to the obtained blood, which was centrifuged to give the plasma. 10% quantity of 1 mol/L HCl was added to the collected plasma as the plasma sample. 10% quantity of 1 mol/L HCl added to blank plasma was used as the blank sample. […]
Plasma concentration measurement: 100 ug/mL of standard solution was diluted with an acetonitrile solution to prepare a calibration curve sample with a concentration of interest. […] 180 uL of internal standard containing acetonitrile (containing 1% quantity of 10 mol/L HCl) was added to each of the plasma calibration curve sample and sample for plasma analysis. […]

physchem = details: pH 2, aqueous buffer, thermodynamic from solid
Description: The solubility of the water-soluble prodrugs described in the Examples and the Reference Examples was measured. […] The filtrate was measured by HPLC.

SMILES: CC(=O)c1cc2c(OC(=O)NCCNCC(=O)O)c3ccsc3c(OC(=O)NCCNCC(=O)O)c2o1 [Example 1, 2,2′-[(2-Acetylthieno[3,2-f][1]benzofuran-4,8-diyl)bis(oxycarbonyliminoethane-2,1-diylimino)]diacetic acid dihydrochloride]
- Residual ratio ([1]; pH2.0 buffer, 25° C., 0 hr): 100%
- Residual ratio ([1]; pH2.0 buffer, 25° C., 3 hr): 100%
- Residual ratio ([1]; pH2.0 buffer, 25° C., 6 hr): 103%
- Residual ratio ([1]; pH2.0 buffer, 25° C., 9 hr): 102%
- Residual ratio ([1]; pH2.0 buffer, 25° C., 12 hr): 102%
- Residual ratio ([1]; pH2.0 buffer, 25° C., 24 hr): 98.6%
- Degradation behaviour in buffers (in words) ([1]; pH 2.0 to 9.0): pH dependent and chemical degradation progressed
- Residual ratio ([1]; pH3.0 buffer, 25° C., 0 hr): 99.9%
- Residual ratio ([1]; pH3.0 buffer, 25° C., 3 hr): 97.6%
- Residual ratio ([1]; pH3.0 buffer, 25° C., 6 hr): 95.3%
- Residual ratio ([1]; pH3.0 buffer, 25° C., 9 hr): 95.6%
- Residual ratio ([1]; pH3.0 buffer, 25° C., 12 hr): 90.9%
- Residual ratio ([1]; pH3.0 buffer, 25° C., 24 hr): 86.9%
- Residual ratio ([1]; pH5.0 buffer, 25° C., 0 hr): 85.1%
- Residual ratio ([1]; pH5.0 buffer, 25° C., 3 hr): 6.6%
- Residual ratio ([1]; pH5.0 buffer, 25° C., 6 hr): 3.9%
- Residual ratio ([1]; pH5.0 buffer, 25° C., 9 hr, dihydrochloride): 0%
- Residual ratio ([1]; pH5.0 buffer, 25° C., 12 hr): 0.0%
- Residual ratio ([1]; pH5.0 buffer, 25° C., 24 hr): 0.0%
- Residual ratio ([1]; pH7.4 buffer, 25° C., 0 hr, dihydrochloride): 0%
- Residual ratio ([1]; pH7.4 buffer, 25° C., 3 hr): 0.0%
- Residual ratio ([1]; pH7.4 buffer, 25° C., 6 hr): 0.0%
- Residual ratio ([1]; pH7.4 buffer, 25° C., 9 hr): 0.0%
- Residual ratio ([1]; pH7.4 buffer, 25° C., 12 hr): 0.0%
- Residual ratio ([1]; pH7.4 buffer, 25° C., 24 hr): 0.0%
- Rate of generation of active form after 24 hours in buffer with pH of 7.4 ([1]; pH 7.4 buffer, 24 hours, 25° C.): 92%
- Residual ratio ([1]; pH9.0 buffer, 25° C., 0 hr, dihydrochloride): 0%
- Residual ratio ([1]; pH9.0 buffer, 25° C., 3 hr): 0.0%
- Residual ratio ([1]; pH9.0 buffer, 25° C., 6 hr): 0.0%
- Residual ratio ([1]; pH9.0 buffer, 25° C., 9 hr): 0.0%
- Residual ratio ([1]; pH9.0 buffer, 25° C., 12 hr): 0.0%
- Residual ratio ([1]; pH9.0 buffer, 25° C., 24 hr): 0.0%
- Stability in solution (in words) ([1]; pH of 2.0, 25° C.): very stable
- Stability in solution (in words) ([1]; pH of 3.0, 25° C.): sufficiently stable
- Degradation in plasma (in words) ([2]; human plasma): quickly progressed
- Interspecies difference of conversion to active form (in words) ([2]; human plasma versus CD1 mouse plasma): interspecies difference was small
- Measurement value % of test compound (ratio of decrease) ([2]; human plasma, 0 minutes): 100%
- Measurement value % of test compound (ratio of decrease) ([2]; human plasma, 5 minutes): 0.0%
- Measurement value % of test compound (ratio of decrease) ([2]; human plasma, 10 minutes): 0.0%
- Measurement value % of test compound (ratio of decrease) ([2]; human plasma, 30 minutes): 0.0%
- Measurement value % of test compound (ratio of decrease) ([2]; human plasma, 60 minutes): 0.0%
- Measurement value % of test compound (ratio of decrease) ([2]; human plasma, 120 minutes): 0.0%
- Degradation in plasma (in words) [3]: quickly progressed
- Test compound remaining (% of 0 min peak area) ([3]; 0 minutes): 100%
- Test compound remaining (% of 0 min peak area) ([3]; 5 minutes): 0.11%
- Test compound remaining (% of 0 min peak area) ([3]; 10 minutes): 0.01%
- Test compound remaining (% of 0 min peak area) ([3]; 30 minutes): 0.01%
- Test compound remaining (% of 0 min peak area) ([3]; 60 minutes): 0.01%
- Test compound remaining (% of 0 min peak area) ([3]; 120 minutes): 0.08%
- Generation of active form after intravenous administration (in words) [4]: quickly generated
- solubility at 24 h (physchem): > 10000 µg/mL
